This passage reports relative viability results from the supplement of paper PMC10307832.

Common to all, as to experiment: relative viability (nuclei count vs DMSO), 5 days (fraction); higher = more cells survive
Compound in assay [1]: O=C(NC1CCNCC1)c1n[nH]cc1NC(=O)c1c(Cl)cccc1Cl [AT-7519] + CC(=O)c1c(C)c2cnc(Nc3ccc(N4CCNCC4)cn3)nc2n(C2CCCC2)c1=O [Palbociclib] (partner 0.5 µM)
The method, boiled down: (§1)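 Relative viability was taken as the ratio of nuclei in treated wells to nuclei in vehicle wells. Lung cancer cell lines in 1536-well plates received compounds by pin tool one day after seeding, either one drug alone or a fixed anchor-drug dose plus five library-drug doses (not always all listed) in √10 steps. Nuclei were counted on 4× images after 5 days of treatment, and values are medians of duplicate plates.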

Compound in assay [2]: O=C(NC1CCNCC1)c1n[nH]cc1NC(=O)c1c(Cl)cccc1Cl [AT-7519] + O=C(c1cc(Cc2n[nH]c(=O)c3ccccc23)ccc1F)N1CCN(C(=O)C2CC2)CC1 [Olaparib] (partner 8 µM)
In short, it runs like this: as §1

Compound in assay [3]: O=C(NC1CCNCC1)c1n[nH]cc1NC(=O)c1c(Cl)cccc1Cl [AT-7519] + N=C(N)NC(=N)NCCc1ccccc1 [Phenformin] (partner 250 µM)
In short, it runs like this:
as §1

Compound in assay [4]: C1=CC2=C(C=C(C(=C2N=C1)O)N=NC3=CC4=C(C=C3)C=C(C=C4)S(=O)(=O)O)S(=O)(=O)O + CCNC(=O)c1noc(-c2cc(C(C)C)c(O)cc2O)c1-c1ccc(CN2CCOCC2)cc1 [Luminespib] (partner 0.01 µM)
In short, it runs like this:
as §1

Regarding UMC-11, the relative viability in assay [1] (first compound 0.01 µM) was determined as 0.319; in assay [1] (first compound 0.03162 µM) it was 0.328; in assay [1] (first compound 0.3162 µM), 0.283; in assay [1] (first compound 1 µM), 0.25; in assay [2] (first compound 0.01 µM), 0.333; in assay [2] (first compound 0.03162 µM), 0.368. The relative viability in assay [2] (first compound 0.3162 µM) came out at 0.373; in assay [2] (first compound 1 µM), 0.229; in assay [3] (first compound 0.01 µM), 0.319; in assay [3] (first compound 0.03162 µM) it was 0.339; in assay [3] (first compound 0.3162 µM), 0.308; in assay [3] (first compound 1 µM), 0.237. For the same cell line, the relative viability in assay [4] (first compound 0.08 µM) was 1.14; in assay [4] (first compound 0.253 µM), 1.04; in assay [4] (first compound 0.8 µM), 0.862; in assay [4] (first compound 2.53 µM), 0.992; in assay [4] (first compound 8 µM) it was 1.02.
